{
  "source": "patent US11472845B2",
  "about": "“Antitumor peptide and use thereof” (TOAGOSEI CO., LTD., priority 2019, dated 2022)",
  "tested_on": "human alveolar basal epithelial adenocarcinoma cell lines (A549)",
  "assay_type": "cell-based",
  "settings": "for Cell viability (%) of test cells: human, 48 h",
  "method": "The antitumor activity of Sample 1 synthesized in the above Test Example 1 with respect to human-derived cultured tumor cells was evaluated. Currently commercially available human gastric cancer cell lines (FU97), human alveolar basal epithelial adenocarcinoma cell lines (A549), human breast cancer cell lines (MDA-MB-231), and human melanoma cell lines (A375) were prepared as test tumor cells. In addition, normal human mammary epithelial cell culture lines (MCF-12F) were prepared for comparison. An RPMI-1640 culture medium including 2 mM of L-glutamine, 1 mM of sodium pyruvate, 10 mM of HEPES, […] of glucose, 50 unit/mL of penicillin, 50 μg/mL of streptomycin, and 10% FBS (product, commercially available from Wako Pure Chemical Industries, Ltd.). The above five types of cell lines were cultured in respective designated culture solutions. The cell lines were cultured so that the number of cells per well in a 96-hole (well) plate was about 5×10^3. Here, an amount of the culture solution per well was 100 μL. The 96-well plate was then placed in a CO2 incubator. Then, pre-incubation was performed under conditions of 37° C. and 5% CO2 for about 1 day (about 23 hours). Then, regarding the culture solution for the peptide addition area, culture solutions containing Sample 1 for each concentration were prepared so that the concentration of Sample 1 was 6.25 μM, 12.5 μM or 25 μM and supplied to wells (that is, wells after the pre-incubation) in which 90 μL of cells to be evaluated were cultured in each well. On the other hand, regarding the culture solution for the comparative test area, a culture solution to which no Sample 1 was added was prepared, and supplied to wells (that is, wells after the pre-incubation) in which 90 μL of cells to be evaluated were cultured in each well. The 96-well plate was then placed in a CO2 incubator, and incubated under conditions of 37° C. and 5% CO2 for 48 hours. […] Then, the absorbance at a wavelength of 450 nm (value corrected by the absorbance at a wavelength of 620 nm: A450-A620) was measured based on the reduction of the tetrazolium salt in the culture solution. Then, the cell viability was calculated according to a colorimetric method. In the test areas (test areas 1 to 3) in the peptide addition area, the cell viability of each of the above five types of cell lines was calculated as a relative value when a measured value (measurement absorbance) of the comparative test area in the same cell lines was set as 100%. That is, regarding each of the above five types of cell lines, the cell viability (%) was calculated by dividing the measurement absorbance of the test areas (test areas 1 to 3) in the peptide addition area by the measurement absorbance of the comparative test area in the same cell lines and multiplying by 100.",
  "note": "Where two headings read alike, the source gives them in different places. Ends that are not written are not given here.",
  "data": [
    {"substance": "MACLGFQRHKAQLNLATRTWPCTLLFFLLFIPVFCKKRTLRKTDRKKR-NH2 (cysteines drawn unpaired) [Sample 1]", "values": [
      {"measurement": "Specific cell viability of test tumor cells", "setting": "A549, 12.5 μM Sample 1, (cell viability of test tumor cells)/(cell viability of MCF-12F cells)×100", "result": 36.0},
      {"measurement": "Cell viability (%) of test cells", "setting": "6.25 μM", "result": 64.7, "unit": "%"},
      {"measurement": "Cell viability (%) of test cells", "setting": "12.5 μM", "result": 41.1, "unit": "%"},
      {"measurement": "Cell viability (%) of test cells", "setting": "25 μM", "result": 24.9, "unit": "%"}
    ]}
  ]
}
